Here are results for two molecules from article PMC5458211, “Mitochondrial VDAC1-based peptides: Attacking oncogenic properties in glioblastoma” (Oncotarget, 2017).

In one assay the test system is cancer cells. The following applies: ref [23]; cited from earlier work. From the text:
D-ΔN-Ter-Antp is composed of Antp (Penetrating), a 16 residue-long sequence from the Drosophila antennapedia-homeodomain, fused to a VDAC1-N-terminal sequence, both containing amino ...

Assay [1] concerns apoptosis-related proteins. Description: Expression of apoptosis-related proteins in treated tumors (IHC, immunoblot). The following applies: treated tumors vs PBS/DMSO. In kind it is in vivo, human U-87MG in nude mice. From the text:
Red color indicates PI nuclear staining and green color TUNEL staining. B. Representative sections from PBS/DMSO- and peptide-TTs IHC stained for p53, Cyto c, AIF, Caspase 3 and Smac/Diablo and then hematoxylin-stained and visualized by microscopy. C. Tissue lysates obtained from controls and several Tf-D-LP4-TTs were immunoblotted for p53, Caspase 8, Cyto c, Smac/Diablo, Caspase 3 and Bcl-2. D. Quantitative analysis of immunoblots is shown (n=2-4).
Formalin-fixed, paraffin-embedded sections of control and peptide-TTs were hematoxylin-eosin stained, probed with appropriate antibodies via IHC staining or immunoblotting of cells and tissue extracts. […]
HBSS solution. Cells or tumor tissue were lysed using lysis buffer (50 mM Tris-HCl, pH 7.5, 150 mM NaCl, 1
Xenograft and intracranial-orthotopic mouse mM EDTA, 1.5 mM MgCl2, 10% glycerol, 1% Triton models X-100, supplemented with a protease inhibitor cocktail
(Calbiochem, UK). Cell lysates were then centrifuged at U-87MG glioblastoma cells (3 x106) were inoculated 600xg (10 min at 4°C) and samples (10-40 μg of protein) s.c. into the hind leg ﬂanks of athymic eight-week old were subjected to SDS-PAGE and immunoblotting male nude mice (Envigo). Thirteen days post-inoculation, using various primary antibodies (sources and dilutions tumor volume was measured and calculated (100-130 as detailed in supplementary Table 2), followed by mm3) and mice were randomized into three groups (5 the appropriate HRP-conjugated secondary antibodies mice/group). Each treatment substance was injected into (i.e., anti-mouse, anti-rabbit or anti-goat). Blots the established s,c. tumors using PBS containing 0.26% were developed using enhanced chemiluminescence DMSO or peptide in PBS, 0.26% DMSO/20 μM). The (Biological Industries). Band intensities were analyzed xenografts were injected 20 µl per tumor (2 points) every by densitometry using Multi Gauge software (Fujifilm) two days. Beginning on the day of inoculation, mouse and the values were normalized to the intensities of the weight and tumor volume were monitored twice a week appropriate β-actin signal that served as a loading control. for a period of 23 days using a digital caliper. At the end of the experiments, the mice were sacrificed, tumors were IHC of tumor tissue sections excised and ex vivo weight was determined. Half of each tumor was either fixed in 4% buffered formaldehyde, IHC staining was performed on 5 μm-thick paraffin-embedded and processed for IHC or frozen in formalin-fixed and paraffin-embedded tumor tissue liquid nitrogen for later immunoblot analysis. sections. The sections were deparaffinized by placing To generate an intracranial-orthotopic mouse model, the slides at 60°C for 1 h and using xylene. […]
(Stoelting, Wood Dale, IL). A middle incision was made c, cytochrome c oxidase subunit IVc, GAPDH, Glut1, on the skull and a burr hole was introduced 0.5 mm HK-II, Klf4, LDH, Nestin, NGFR, P53, SMAC/Diablo, anterior to the bregma and 2.5 mm lateral to the midline Sox2, S100b, VDAC1) was performed in 0.01 M citrate using a drill (Stoelting). A 31-gauge needle loaded with buffer (pH 6.0). For CD31, HK-I and Ki-67, antigen 10 µL PBS was used to deliver tumor cells. The needle retrieval was performed in 10 mM Tris-EDTA (pH 9) and tip was inserted into the brain 3 mm deep, relative to the 0.5 M Tris (pH 10), for 30 minutes each at 95-98°C. After skull surface, and maintained at this depth for 2 minutes washing sections in PBS containing 0.1% Triton-X100 before injection of tumor cells. Under sterile conditions, (pH 7.4), non-specific antibody binding was reduced by a 3 µL solution containing U-87MG (8×104) cells was incubating the sections in 10% normal goat serum for 2 injected into the brain parenchyma over a period of […]. After decanting excess serum, sections were incubated
(1 picture or pasted object on this page, not shown here)

Structures are written as SMILES. Non-standard residues stand in square brackets, D forms with d. Residues, ends and D or L forms follow the SMILES beside them.

As for `CC[C@@H](C)[C@@H](NC(=O)[C@@H](CCCCN)NC(=O)[C@H](NC(=O)[C@@H](CCC(N)=O)NC(=O)[C@@H](CCCNC(=N)N)NC(=O)[C@@H](CC(C)C)NC(=O)CNC(=O)[C@@H](Cc1ccccc1)NC(=O)CNC(=O)[C@@H](Cc1ccc(O)cc1)NC(=O)CNC(=O)[C@@H](CCCCN)NC(=O)[C@H](NC(=O)[C@@H](Cc1ccccc1)NC(=O)[C@H](NC(=O)[C@@H](CC(=O)O)NC(=O)[C@H](N)CCCNC(=N)N)C(C)C)[C@H](C)O)[C@H](C)CC)C(=O)N[C@H](Cc1c[nH]c2ccccc12)C(=O)N[C@H](Cc1ccccc1)C(=O)N[C@H](CCC(N)=O)C(=O)N[C@H](CC(N)=O)C(=O)N[C@H](CCCNC(=N)N)C(=O)N[C@H](CCCNC(=N)N)C(=O)N[C@H](CCSC)C(=O)N[C@H](CCCCN)C(=O)N[C@H](Cc1c[nH]c2ccccc12)C(=O)N[C@H](CCCCN)C(=O)N[C@H](CCCCN)C(=O)O` [D-ΔN-Ter-Antp] (H-[dR][dD][dV][dF][dT][dK]G[dY]G[dF]G[dL][dR][dQ][dI][dK][dI][dW][dF][dQ][dN][dR][dR][dM][dK][dW][dK][dK]-OH; N-terminus and C-terminus assumed), in the assay on cancer cells, the “cell death induction, selection among over 40 versions” value is on record as “most active in cell death induction”.

In the case of `CC[C@H](C)[C@H](NC(=O)[C@H](C)NC(=O)[C@@H](N)Cc1c[nH]cn1)C(=O)N[C@@H](Cc1ccc(O)cc1)C(=O)N1CCC[C@H]1C(=O)N[C@@H](CCCNC(=N)N)C(=O)N[C@@H](Cc1c[nH]cn1)C(=O)N[C@@H](CO)C(=O)N[C@@H](Cc1c[nH]c2ccccc12)C(=O)N[C@H](C(=O)N[C@@H](Cc1c[nH]c2ccccc12)C(=O)N[C@@H](CCC(=O)O)C(=O)N[C@H](CCCCN)C(=O)N[C@H](CCCCN)C(=O)N[C@H](CC(C)C)C(=O)N[C@H](CCC(=O)O)C(=O)N[C@@H](C(=O)N[C@H](C)C(=O)N[C@@H](C(=O)N[C@H](CC(N)=O)C(=O)N[C@H](CC(C)C)C(=O)N[C@H](C)C(=O)N[C@H](Cc1c[nH]c2ccccc12)C(=O)N[C@@H](C(=O)N[C@H](C)C(=O)NCC(=O)N[C@H](CC(N)=O)C(=O)N[C@H](CO)C(=O)N[C@H](CC(N)=O)C(=O)N[C@@H](CCCCN)C(=O)N[C@@H](Cc1c[nH]c2ccccc12)C(=O)N[C@H](C(=O)N[C@@H](Cc1c[nH]c2ccccc12)C(=O)N[C@@H](CCCCN)C(=O)O)[C@@H](C)O)[C@H](C)O)C(C)C)[C@H](C)O)[C@@H](C)O` [Tf-D-LP4], in assay [1], the Bcl-2 level entry is “almost undetectable”, the “Caspase 3 expression increase” value was greater than 5 fold, the “Caspase 8 expression increase” value is “about 20 fold” and the “Cyto c expression increase” value is “over 10 fold”. Also, in assay [1], the SMAC/DIABLO expression result is listed as “much higher” and the p53 expression increase result was “over 12 fold”.
